We go through 1 compound from patent US10221153B2, “Dibenzothiophene compounds” (Saint Louis University, priority 2017, dated 2019).

“Also recorded” adds a separate entry of the source.

Data set [1] can be described thus: Photophysical analysis: absorption, excitation and emission at 10 μM (Example 5). The data set is classed as physicochemical. Particulars: EtOH at 10 μM.
Experiment in data set [2]: as above
In kind it is physicochemical. As to the method:
All data were collected on a SHIMAZDU Spectrofluorometer RF-5301PC. Solutions of the respective compounds were prepared in acetonitrile at approximately 1 mM concentration. Solutions (4 mL) were added to a freshly washed quartz cuvette for measurements. The excitation wavelength was varied between 270 nm and 390 nm in 20 nm intervals until the greatest intensity emission was detected. The emission spectra ranges started at 20 nm to the red of the chosen excitation wavelength up to 780 nm. Scan speed was set at “Very Fast” with both the slit widths set to 1.5 mm.
All data were collected on a SHIMAZDU Spectrofluorometer RF-5301PC. Solutions of the respective compounds were prepared in acetonitrile at approximately 1 mM concentration. Solutions (4 mL) were added to a freshly washed quartz cuvette for measurements. The monitored emission wavelength was set using the high intensity emission from the respective molecule. The scanning range was from 220 nm through 770 nm. Scan speed was set at “Very Fast” with both the slit widths set to 1.5 mm.
Excitation/emission data for compounds 6b, 7b, 8b, 15b, 16b, and 17b were collected using the methods described in Example 3 but using a lower concentration of acetonitrile (10 μM). Compounds 15b, 16b and 17b and their parent molecules (6b, 7b and 8b) all luminesce in the visible range and their optical properties are described in Table 4. […] The wavelength of λex for the excitation scan corresponds to excitation to S1, which leads to emission. This λex for all the molecules were red shifted, or shifted to the direction of longer wavelengths, from the peak absorption by an average 40 nm.

Data set [3] concerns HeLa human cervical carcinoma cell line. Nature of the data set: Cell imaging of HeLa cells incubated with compound, fluorescence microscopy. The data set is classed as cell-based. Conditions: 1 μM, 120 min. The protocol:
HeLa human cervical carcinoma cell line was obtained from ATCC (Manassas, Va.). The cells were cultured in a humidified incubator at 5% CO2 and 37° C. The cell line was grown in D-MEM (Invitrogen) high glucose supplemented with 10.0% fetal bovine serum (Invitrogen, Carlsbad, Calif.) and 1.0% Penicillin/Streptomycin (Invitrogen, Carlsbad, Calif.) for an environment suitable for cell growth. The culture was sub-cultured every three days to maintain normal cell growth.
Sterile glass PDL coated #1.5 cover slips (NeuVitro), pre-incubated with culture medium, were placed in sterile 6-well plates. Single cell suspension of the HeLa (cervical cancer cells taken from patient Henrietta Lacks) cell line was prepared at 5×10^4 cells ml^−1 in the appropriate medium. Volumes of 2.0 mL were pipetted into each of the wells containing the coverslips. The 6-well plate was left overnight at 37.0° C. in a 5.0% CO2 incubator. Following the overnight incubation, the plate was aspirated dry and then fresh culture medium, containing the drug (at 1.0 μM and 0.10% DMSO) in a volume of 2.0 mL, was gently pipetted onto the cell monolayers attached to the glass cover slips. Cells on the cover slips were exposed to the drug for approximately 2 hours. Cells were washed with PBS and treated with 4.0% paraformaldehyde solution prepared in PBS, incubated for 30 minutes at room temperature for […]. Several washes with PBS were completed to ensure excess solution was rinsed away. Glass cover slips were removed and mounted on slides with ProLong Gold Antifade Mountant (ThermoFisher Scientific). The specimen was dried for several minutes and sealed with clear nail polish before visualized under a microscope
Cell Image Captures: All images were captured with a Leica DM 4000 B microscope with a DFC3000G camera (Leica Microsystems, Germany) and 63× oil immersion lens. HeLa cells were staged according to the method above. Leica LASX Core Software (Leica Microsystems, Germany) was used to acquire the images.
Stained cells were clearly observed by exciting the cells with a broadly emitting lamp using DAPI filter set. Luminescence was observed within the cell bodies of the HeLa cells upon excitation of the UV wavelengths. The excitation wavelength was 350 nm and the emission wavelength was approximately 400 nm. FIG. 14 depicts representative images of HeLa cervical cancer cell lines incubated with Compounds 16b, 15b, and 17b (1 μM) for 120 min. Bright field images of cells incubated with compounds 16b, 15b, and 17b are shown in Panels A, D, and G, respectively. Luminescence from each compound (16b, 15b, and 17b) is shown in Panels B, E, and H, respectively, with UV laser radiation.

The nature of data set [4]: Quantum yield by single-point method. Conditions: single-point method in EtOH.
The next data set concerns HeLa cells. Nature of the data set: Anti-proliferation (MTS) assay, HeLa cells, 72 hours. Conditions: 1 nM to 100 μM. The data set is classed as cell-based, human. The protocol: To determine whether long-term exposure to each compound could be toxic to cells, Hela cells were treated with varying concentrations of Compounds 16b, 15b and 17b for 72 hours. An anti-proliferation protocol was carried out by testing chosen compounds on the growth of the human cervical cancer cell lines. HeLa cells were cultured in their respective media supplemented with 10.0% FBS (fetal bovine serum) and 1.0% Pen/Strep. Cells (1,000 cells/100 μL per well) were plated in a 96-well culture plate (TC treated, Greiner) and incubated for 24 h. 50 μL (DMSO <1%) of the compound at final concentrations 100 μM, 10 μM, 1 μM, 100 nM, 10 nM, and 1 nM were added to the appropriate wells. Triplicates wells were performed for each compound, on three identical plates.
After incubation of the cells, at 37° C. in a humidified atmosphere of 5% CO2 for 72 hours, the cells were stained and incubated with MTS (3-(4,5-dimethylthiazol-2-yl)-5-(3-carboxymethoxyphenyl)-2-(4-sulfophenyl)-2H-tetrazolium) reagent in the presence of PMS (phenazine methosulfate) reagent for 2 hours to determine cell viability. An MTS assay is based on the reduction of the MTS tetrazolium compound by viable cells to generate a colored formazan dye that is soluble in cell culture media. The absorbance of each well was taken at 490 nm using a multimode plate reader (FlexStation 3, Molecular Devices, San Diego, Calif.). GraphPad Prism was used to analyze transposed data to determine the percent viability. […] Each compound was tested in at least triplicate.

For the compound `O=S(=O)([O-])c1ccc2c(c1)-c1cc(-c3ccccc3)ccc1S2(=O)=O.[Na+]` [Compound 15b, sodium 8-phenyldibenzo[b,d]thiophene-2-sulfonate 5,5-dioxide], in data set [1], the “log εmax (maximum molar extinction coefficient)” value amounted to 4.67 M^−1 cm^−1 and the λem stood at 380 nm. Also, the “log εex (molar extinction coefficient at excitation wavelength)” value in data set [2] was 4.4 M^−1 cm^−1. Moreover, in data set [2] (acetonitrile at 10 μM), the λabs was found to be 248 nm and the λem is listed as 371 nm. For the same compound, the “λex (excitation wavelength)” value in data set [2] (acetonitrile at 10 μM (footnotes a,b)) is recorded as 268 nm. Further, in data set [2] (calculated from excitation wavelength, acetonitrile at 10 μM), the “Stokes Shift” value is reported as 103 nm. Also, the λex in data set [2] (footnotes a,g: acetonitrile at 10 μM / EtOH at 10 μM) is given as 274 nm. Besides, in data set [3], the “tracking with chromosomes during mitosis” value is recorded as “track with chromosomes during mitosis”. Besides, in data set [3] (excitation 350 nm, emission approximately 400 nm), the “luminescence intensity in cells” value is “intense luminescence”. Further, the “location of luminescence in the cell” value in data set [3] (merged bright field and UV images) is “luminescence is clearly identified within the nucleus of the cell”. The “φ (quantum yield)” value in data set [4] is 0.07. Also, the “cytotoxicity / decrease in cell viability” value in the data set with HeLa cells is recorded as “do not show any decrease in cell viability at any concentration tested; also recorded: low cytotoxicity”.
